From patent publication US20080070949A1, “POLYMORPHS OF RIMONABANT” (Cipla Limited, priority 2006, published 2008)
Blank lines part the entries; values can stand above or below the molecule they belong to.

What was measured:
Type in all cases: physicochemical
[1] = Comparative intrinsic dissolution study (HPLC-UV method); details: 900 ml of 1% Sodium Lauryl Sulphate in 0.05 M NaH2PO4 buffer pH 6.6, 50 RPM, 37° C.
Protocol: Intrinsic dissolution was studied using an HPLC-UV method with the following parameters:
Dissolution media:—900 ml of 1% Sodium Lauryl Sulphate (SLS) in buffer.
Buffer: 0.05 M NaH2PO4 pH 6.6 with NaOH
Mobile Phase:Buffer:Acetonitrile 30:70 Buffer 0.02 M NaH2PO4 0.1% Triethylamine pH 2.5 with phosphoric acid.
Column: YMC Pack Pro 18 15 cm.
Pressure applied for preparation of pellet=2.5 tonns for 5 mins.
Filter=Whatman 0.45 micron.
The results of the intrinsic dissolution study are illustrated in the graph in FIG. 5.

[2] = Long term stability testing; details: 30±2C., 65±5% relative humidity
Protocol: (§1) Long term and accelerated stability testing was carried out on crystalline rimonabant Form C.
(§2) Each sample was hermetically sealed in double HMHDPE bags and placed in fibre drum. Quantity of sample=0.8 gm per analysis. Storage conditions (long term)=30±2C., 65±5% relative humidity. Storage conditions (accelerated)=40±2° C., 75±5% relative humidity.

[3] = Accelerated stability testing; details: 40±2° C., 75±5% relative humidity
Protocol: as §1, §2

[4] = initially, at 1 month, at 2 months and at 3 months

order of intrinsic dissolution [1]: amorphous >Form C >Form I
SMILES: Cc1c(C(=O)NN2CCCCC2)nn(-c2ccc(Cl)cc2Cl)c1-c1ccc(Cl)cc1 [amorphous, N-piperidino-5-(4-chlorophenyl)-1-(2,4-dichlorophenyl)-4-methyl-3-pyrazolecarboxamide]

Assay (98.0%–102.0% w/w) ([2]; Initial): 99.86 % w/w
Chromatographic purity by HPLC Individual impurity NMT 0.10% ([2]; Initial): 0.08%
Chromatographic purity by HPLC Total impurities NMT 1.00% ([2]; Initial): 0.20%
Water Content (By KF) NMT 5.0% w/w ([2]; Initial): 3.08 % w/w
description of sample ([2]; initially and at 3 months): white colour powder
polymorphic identity confirmed by XRPD, IR and DSC ([2]; initially and at 3 months): Form C
Assay (98.0%–102.0% w/w) ([2]; period of keeping (3 months)): 99.13 % w/w
Chromatographic purity by HPLC Individual impurity NMT 0.10% ([2]; period of keeping (3 months)): 0.08%
Chromatographic purity by HPLC Total impurities NMT 1.00% ([2]; period of keeping (3 months)): 0.20%
Remarks ([2]; period of keeping (3 months)): Product is stable
Water Content (By KF) NMT 5.0% w/w ([2]; period of keeping (3 months)): 3.08 % w/w
Assay (98.0%–102.0% w/w) ([3]; 1 Month): 101.36 % w/w
Chromatographic purity by HPLC Individual impurity NMT 0.10% ([3]; 1 Month): 0.08%
Chromatographic purity by HPLC Total impurities NMT 1.00% ([3]; 1 Month): 0.16%
Water Content (By KF) NMT 5.0% w/w ([3]; 1 Month): 3.94 % w/w
Assay (98.0%–102.0% w/w) ([3]; 2 Months): 100.67 % w/w
Chromatographic purity by HPLC Individual impurity NMT 0.10% ([3]; 2 Months): 0.08%
Chromatographic purity by HPLC Total impurities NMT 1.00% ([3]; 2 Months): 0.21%
Water Content (By KF) NMT 5.0% w/w ([3]; 2 Months): 4.27 % w/w
Assay (98.0%–102.0% w/w) ([3]; 3 Months): 99.45 % w/w
Chromatographic purity by HPLC Individual impurity NMT 0.10% ([3]; 3 Months): 0.08%
Chromatographic purity by HPLC Total impurities NMT 1.00% ([3]; 3 Months): 0.20%
Water Content (By KF) NMT 5.0% w/w ([3]; 3 Months): 4.07 % w/w
Assay (98.0%–102.0% w/w) ([3]; Initial): 99.86 % w/w
Chromatographic purity by HPLC Individual impurity NMT 0.10% ([3]; Initial): 0.08%
Chromatographic purity by HPLC Total impurities NMT 1.00% ([3]; Initial): 0.20%
Water Content (By KF) NMT 5.0% w/w ([3]; Initial): 3.08 % w/w
description of sample [3, 4]: white colour powder
polymorphic identity confirmed by XRPD, IR and DSC [3, 4]: Form C
SMILES: Cc1c(C(=O)NN2CCCCC2)nn(-c2ccc(Cl)cc2Cl)c1-c1ccc(Cl)cc1 [Form C, N-piperidino-5-(4-chlorophenyl)-1-(2,4-dichlorophenyl)-4-methyl-3-pyrazolecarboxamide]
